In PMC12998938, “Neutrophil store-operated Ca^2+ entry: A correctable biomarker of cystic fibrosis lung disease progression” (Journal of cystic fibrosis : official journal of the …, 2025):

Legend:
[1] = test system: SOCE, Orai1 and STIM1; details: ref [49]; cited from earlier work
[2] = test system: SOCE/Orai1 in non-CF peripheral blood neutrophils; assay: Fluo-4 Ca2+ assay, global thapsigargin-stimulated Ca2+ response (SOCE), non-CF neutrophils; assay type: cell-based, human; details: 1 μM thapsigargin
Method: (§1) Neutrophils were immediately isolated by negative selection from deidentified blood samples using an EasySep human neutrophil isolation kit (Stem Cell Technologies) as described. Cytosolic Ca^2+ was measured using Fluo-4 as described. Protein lysate from isolated blood neutrophils was characterized by liquid chromatography with tandem mass spectrometry (LC-MS/MS) as described. Degranulation products in media were quantified by Luminex assay using a custom Bio-Plex human kit (BioRad) per the manufacturer’s protocol […]. Detailed methods for all experiments and measurements are provided in an online data supplement.
(§2) Isolated neutrophils were incubated with peptide or vehicle control for 3 h. For the final hour of treatment, cells were loaded with Fluo-4 direct (Thermofisher) for 45 min at 37°C and 15 min at room temperature as described.
(§3) Fluo-4 Ca^2+ assays. Isolated neutrophils were incubated with peptide or vehicle control for 3 h. For the final hour of treatment, cells were loaded with Fluo-4 direct (Thermofisher) for 45 min at 37°C and 15 min at room temperature. For global Ca^2+ measurements, baseline fluorescent readings were made for 2 min (1 read every 30 s) using a Tecan Infinite M1000 plate reader (ex 494 em 516 nm, bandwidth 5 nm) before thapsigargin (Sigma-Aldrich) was added and the change in emission was recorded for 10 min (1 read every 30 s). To isolate phases of store operated Ca^2+ entry, cells underwent 3 rounds of centrifugation and resuspension in Ca^2+-free Ringer’s solution to remove extracellular Ca^2+. Baseline fluo-4 fluorescence was read for 2 min before cell were stimulated with thapsigargin (Tocris). Reads continued for ~5 min before 1.2 mM Ca^2+ was added to the extracellular solution and SOCE was measured for ~10 mins. For analysis, all fluo-4 fluorescence reads are normalized to baseline.

[3] = test system: Ca2+ influx in CF neutrophils; assay: Fluo-4 Ca2+ influx across the plasma membrane, CF neutrophils; assay type: cell-based, human; details: thapsigargin 1 μM, regardless of genotype
Method: as §2
(§4) Fig. 3. ELD607 inhibits SOCE in non-CF and CF neutrophils. (A) and (B) Mean changes in fluo-4 fluorescence as a marker of cytoplasmic Ca^2+ levels in non-CF and CF neutrophils respectively before and after stimulation with 1 μM thapsigargin (Tg). Before stimulation, neutrophils were exposed to vehicle (0.1% DMSO in PBS), 10 μM ELD607 or scrambled peptide (control) for 3 h. N = 10 non-CF and 21 CF donors. Stats show ELD607 vs vehicle or scrambled peptide based on color. (C-F) Isolation of ER Ca^2+ release vs Ca^2+ influx across the plasma membrane in non-CF and CF Neutrophils. Neutrophils were stimulated with thapsigargin (1 μM) in the absence of extracellular Ca^2+ to allow the release of Ca^2+ stores to be measured. Extracellular Ca^2+ was then returned so that extracellular Ca^2+ influx could be measured. (C) Mean fold change in Fluo-4 fluorescence during ER store release in non-CF and CF neutrophils. […] (E) Mean fold change in fluo-4 fluorescence during Ca^2+ influx in non-CF and CF neutrophils. […]
(§5) SOCE has 2 phases: release of Ca^2+ from ER stores and Ca^2+ influx from the extracellular space via Ca^2+ channels such as Orai1. […] Once the stores had emptied, extracellular Ca^2+ was reintroduced and Ca^2+ influx was measured (Fig. 3C–F).
(§6) Fluo-4 Ca^2+ assays. […] For global Ca^2+ measurements, baseline fluorescent readings were made for 2 min (1 read every 30 s) using a Tecan Infinite M1000 plate reader (ex 494 em 516 nm, bandwidth 5 nm) before thapsigargin (Sigma-Aldrich) was added and the change in emission was recorded for 10 min (1 read every 30 s). […] Baseline fluo-4 fluorescence was read for 2 min before cell were stimulated with thapsigargin (Tocris). Reads continued for ~5 min before 1.2 mM Ca^2+ was added to the extracellular solution and SOCE was measured for ~10 mins. For analysis, all fluo-4 fluorescence reads are normalized to baseline.

[4] = test system: Ca2+ influx in non-CF neutrophils; assay: Fluo-4 Ca2+ influx across the plasma membrane, non-CF neutrophils; assay type: cell-based, human; details: thapsigargin 1 μM, regardless of genotype
Method: as §2, §4, §5, §6

[5] = test system: SOCE/Orai1 in CF peripheral blood neutrophils; assay: Fluo-4 Ca2+ assay, global thapsigargin-stimulated Ca2+ response (SOCE), CF neutrophils; assay type: cell-based, human; details: CF, 1 μM thapsigargin
Method: as §1, §2, §3

[6] = test system: SOCE in CF neutrophils; details: in vitro CFTR potentiation; ref [12]; cited from earlier work
Text: We have previously reported that Ca^2+ signaling is influenced by estrogen in pwCF airways. […] Circulating neutrophil levels fluctuate during the menstrual cycle and sex-specific differences in neutrophil function have previously been described. It may have been that all our female participants had low circulating estrogen levels at time of sample, or that SOCE in neutrophils is less-estrogen sensitive than SOCE in airway epithelia. Importantly, most CF participants were taking CFTR modu ...

[7] = test system: CF neutrophils; details: ex vivo treatment; ref [12]; cited from earlier work
Text: Since SPLUNC1 is rapidly degraded ...

[8] = test system: inositol monophosphatase 2 (printed IMAP2); details: no reference printed with the statement; cited from earlier work
Text: Increased SOCE has previously been described in CF neutrophils and may be causal for CF neutrophil hyperactivity. However, Orai1’s involvement in SOCE in neutrophils has not been extensively studied, and the impact of CFTR modulator therapies on Orai1/SOCE is not well-understood. To globally assess the impact of ETI on CF neutrophils, we first performed a proteomic analysis. This analysis identified multiple proteins that were differentially expressed in CF-derived neutrophils relative to neutrophils from non-CF participants, even though the majority of pwCF in this part of the study ha ...

[9] = test system: neutrophil elastase; details: neutrophil elastase; ref [20]; cited from earlier work

Molecule: NCCOB(c1ccccc1)c1ccccc1 [2-aminoethoxydiphenyl borate]
- inhibition of SOCE, Orai1 and STIM1 [1]: broad spectrum SOCE antagonist that also inhibits Orai1 and STIM1

Molecule: C/C=C(/C)C(=O)O[C@H]1C(C)=C2[C@H]([C@@H]1OC(=O)CCCCCCC)[C@@](C)(OC(C)=O)C[C@H](OC(=O)CCC)[C@@]1(O)[C@H]2OC(=O)[C@@]1(C)O [thapsigargin]
- rate of activation (slope) of cytoplasmic Ca2+ response ([2]; vs CF p<0.001): 0.033 ± 0.012
- Ca2+ influx relative to ER Ca2+ release, CF [3]: ~ 10 fold
- Ca2+ influx relative to ER Ca2+ release, non-CF [4]: ~ 10 fold
- rate of activation (slope) of cytoplasmic Ca2+ response ([5]; Fluo-4, vs non-CF p<0.001): 0.085 ± 0.009
- increase in cytoplasmic Ca2+ vs non-CF ([5]; n = 10 non-CF, 21 CF): significantly greater increases in cytoplasmic Ca^2+ than non-CF controls

Molecule: CC(C)(C)c1cc(C(C)(C)C)c(NC(=O)c2c[nH]c3ccccc3c2=O)cc1O [Kalydeco]
- SOCE and bacterial killing of CF neutrophils [6]: sufficient to normalize SOCE and CF neutrophil bacterial killing
- bacterial killing by CF neutrophils [7]: improved

Molecule: [Li] [lithium]
- effect of IMPA2 inhibition on inositol phosphate [8]: cellular accumulation of inositol phosphate

Molecule: VIRGINDMHVL [scrambled ELD607, scrambled version of ELD607 (negative control peptide)]
- inhibition of SOCE (global Ca2+ response) ([2]; 10 μM peptide, 3 h pre-treatment, N = 10 donors): no effect on SOCE in either group
- inhibition of SOCE (global Ca2+ response) ([5]; 10 μM peptide, 3 h pre-treatment, Fluo-4, N = 21 donors): no effect on SOCE in either group

B1: SPLUNC1: short palate lung and nasal epithelial clone 1, endogenous protein (protein, UniProt Q9NP55 20-256, looked up)
BPI fold-containing family A …: QFGGLPVPLDQTLPLNVNPALPLSPTGLAGSLTNALSNGLLSGGLLGILENLPLLDILKPGGGTSGGLLGGLLGKVTSVIPGLNNIIDIKVTDPQLLELGLVQSPDGHRLYVTIPLGIKLQVNTPLVGASLLRLAVKLDITAEILAVRDKQERIHLVLGDCTHSPGSLQISLLDGLGPLPIQGLLDSLTGILNKVLPELVQGNVCPLVNEVLRGLDITLVHDIVNMLIHGLQFVIKV
- degradation by neutrophil elastase [9]: rapidly degraded by neutrophil elastase
